Here are results for 1 compound from paper PMC6104635 (ACS chemical neuroscience, 2018).

As usually defined, the EC50 is the concentration at which the effect is half-maximal.

Each structure is given as a SMILES string. Numbering of substitutions follows the chain as printed.

Common to all, as to assay type: cell-based
In one experiment the target is T1, rat M1 (Rattus norvegicus, UniProt P08482).
T1 sequence (P08482 1-460): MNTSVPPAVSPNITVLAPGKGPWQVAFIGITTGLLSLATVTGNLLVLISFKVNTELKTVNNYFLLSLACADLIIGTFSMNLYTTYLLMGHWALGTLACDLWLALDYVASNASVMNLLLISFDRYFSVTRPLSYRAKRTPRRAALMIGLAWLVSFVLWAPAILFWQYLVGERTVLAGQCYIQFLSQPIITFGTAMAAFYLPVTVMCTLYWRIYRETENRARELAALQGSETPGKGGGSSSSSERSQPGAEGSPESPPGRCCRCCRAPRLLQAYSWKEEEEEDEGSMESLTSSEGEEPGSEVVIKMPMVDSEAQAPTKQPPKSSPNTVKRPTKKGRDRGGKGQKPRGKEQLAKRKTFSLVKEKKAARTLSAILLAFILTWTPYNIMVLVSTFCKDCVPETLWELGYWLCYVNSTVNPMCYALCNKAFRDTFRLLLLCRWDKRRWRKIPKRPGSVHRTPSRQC
Nature of the experiment: mAChR selectivity, PAM activity at rat M1.

The target of another experiment is T2, human M4 (Homo sapiens, UniProt P08173).
T2 sequence (P08173 1-479): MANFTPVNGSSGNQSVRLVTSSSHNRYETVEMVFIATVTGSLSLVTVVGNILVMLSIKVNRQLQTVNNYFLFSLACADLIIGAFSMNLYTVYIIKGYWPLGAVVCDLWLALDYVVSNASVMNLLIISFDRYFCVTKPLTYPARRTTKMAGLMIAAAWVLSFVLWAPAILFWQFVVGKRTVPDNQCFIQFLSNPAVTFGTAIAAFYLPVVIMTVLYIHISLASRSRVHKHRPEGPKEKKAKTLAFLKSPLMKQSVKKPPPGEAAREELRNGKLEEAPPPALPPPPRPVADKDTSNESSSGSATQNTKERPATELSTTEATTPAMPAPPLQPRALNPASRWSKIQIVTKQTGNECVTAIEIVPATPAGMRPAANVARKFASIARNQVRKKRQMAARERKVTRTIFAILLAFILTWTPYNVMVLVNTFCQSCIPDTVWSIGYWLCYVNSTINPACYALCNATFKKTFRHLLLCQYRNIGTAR
Nature of the experiment: mAChR selectivity, PAM activity at human M4. The note with it: result in words.

In a further experiment the target is T3, rat M4 (Rattus norvegicus, UniProt P08485).
T3 sequence (P08485 1-478): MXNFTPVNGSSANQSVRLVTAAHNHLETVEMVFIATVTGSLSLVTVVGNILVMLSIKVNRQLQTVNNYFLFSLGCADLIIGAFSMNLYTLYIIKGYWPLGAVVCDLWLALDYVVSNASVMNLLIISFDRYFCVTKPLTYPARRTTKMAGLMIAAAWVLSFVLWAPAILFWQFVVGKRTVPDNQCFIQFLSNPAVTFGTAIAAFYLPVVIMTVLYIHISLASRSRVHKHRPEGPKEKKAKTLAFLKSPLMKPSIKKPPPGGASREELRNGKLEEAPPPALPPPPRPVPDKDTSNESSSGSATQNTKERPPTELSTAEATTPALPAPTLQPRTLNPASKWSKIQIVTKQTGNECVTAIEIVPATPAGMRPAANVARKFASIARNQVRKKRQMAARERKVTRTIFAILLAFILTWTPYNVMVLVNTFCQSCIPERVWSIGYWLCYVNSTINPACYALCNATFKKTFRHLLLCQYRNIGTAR
Nature of the experiment: mAChR selectivity, PAM activity at rat M4.

For a further experiment, the target named is T4, human M1 (Homo sapiens, UniProt P11229).
T4 sequence (P11229 1-460): T1 sequence (P08482 1-460) with V5A, S254T, S309P, K320R, G337A, V413I
The experiment can be described thus: mAChR selectivity, PAM activity at human M1.

For `CCCN(C(=O)C1CCN(S(=O)(=O)c2ccc3[nH]ncc3c2)CC1)[C@@H]1CCc2c(F)cccc21` [Compound 18g], on rat M1, the “rat M1 % ACh Max” value was 69 % ACh Max. In addition, the EC50 at rat M1 (read-out: rat M1 EC50) was 904 nM; at rat M4 (read-out: rat M4 EC50), 3910 nM; at human M1 (read-out: human M1 EC50, PAM activity), 1030 nM. For the same compound, the “human M4 PAM activity” value at human M4 was “inactive”. Also, the “rat M4 % ACh Max” value at rat M4 was 49 % ACh Max. Also, the “selectivity for M5 versus M1” value at human M1 (M5-preferring PAM) turned out to be 20 fold. Besides, at human M1 (PAM activity), the “human M1 % ACh Max” value turned out to be 67 % ACh Max.
